From patent publication US20250228879A1, “METHOD AND COMPOSITION FOR CONTROLLING ACNE USING RHAMNOLIPIDS” (Stepan Company, priority 2022, published 2025)
Marks after values point to notes of the source that are not given here.

Experiments:
C. acnes = assay: Labskin efficacy of rhamnolipids compared to salicylic acid and benzoyl peroxide (Example 5); format: cell-based, Cutibacterium acnes
Procedure: A study was conducted to compare the efficacy of the rhamnolipid mixture of the present technology with salicylic acid and benzoyl peroxide, two common over-the-counter anti-acne actives. The samples containing salicylic acid and benzoyl peroxide were additionally mixed using a tip sonicator to ensure complete dissolving or adequeate distribution of the active.
The skin analog substrate (Labskin) was prepared as described in Example 4. The C. acnes microorganism was cultured as described in Example 4, and each Labskin unit was inoculated as described in Example 4. The Labskin units were incubated at 37° C. for 24 hours, and after 24 hours, were treated with 11 microliters of control (dPBS), vehicle, or test item. All Labskin units were then incubated at 37° C. for 24 hours, after which biopsy samples of 8 mm in diameter were aseptically removed from the center of each Labskin unit and viable microbial numbers were assayed by recovery on appropriate culture medium.
Technical replicate counts obtained from selective solid media were averaged and used to calculate the colony forming units per square cm (CFU cm^−2). The enumeration of C. acnes for the control, vehicle, and test samples is shown graphically in FIG. 4.
The Log10 difference between the dPBS control and the vehicle and test samples was calculated as described in Example 4, and the Logio difference results are shown graphically in FIG. 5.

[1] = test system: Cutibacterium acnes (ATCC #6919); assay: Time-dependency comparative testing, flow cytometry viability (Example 6); format: cell-based
Procedure: A study was conducted to compare the time-dependent efficacy of a rhamnolipid mixture of the present technology (Example 6 Composition), a commercially available rhamnolipid product (Comparative Composition), and salicylic acid against Cutibacterium acnes (ATCC #6919). […] The Comparative Composition comprised a mixture of rhamnolipids having a mono-rhamnolipid: di-rhamnolipid ratio of about 4:96 Test samples were prepared by diluting the rhamnolipids and the salicylic acid in sterile water. […] The concentrations of salicylic acid actives in the test samples were 0.03 wt %, 0.1 wt %, and 0.3 wt %. Prior to initiation of the study, samples were sufficiently pre-reduced to remove oxygen by using an indirect atmospheric sequestering of oxygen using hydrogen reaction over palladium catalyst. […] The sample aliquots were neutralized by dilution in an oxygen-reducing buffer containing the flow cytometry dyes, SYTO 9 and Propidium Iodide. Samples were analyzed using flow cytometry where cells were characterized by morphology and viability in comparison to a deionized water control.

[2] = water at 25° C.; cited from earlier work
C. acnes ATCC 6919 = assay: Efficacy against C. acnes, aqueous test samples (Example 1); format: cell-based, Cutibacterium acnes; details: Tested Conc. 0.3%, pH 2.7
Procedure: A study was conducted to determine the antimicrobial activity of a rhamnolipid mixture of the present technology alone against C. acnes, available from American Type Culture Collection (ATCC), Manassas, VA as ATCC 6919. Test samples were prepared by mixing 6.0% by weight of the rhamnolipid mixture into an aqueous base. Two samples were prepared, one sample using a rhamnolipid mixture processed by a non-solvent purification process, and the other sample using a rhamnolipid mixture processed by a solvent extraction process. The rhamnolipid mixtures in each sample comprise a weight ratio of mono-rhamnolipids to di-rhamnolipids in the range of 43:57 to 45:55.

[3] = 15 min Exposure, Tested Conc. 0.03%
[4] = 15 min Exposure, Tested Conc. 0.10%
[5] = 15 min Exposure, Tested Conc. 0.30%
[6] = 60 min Exposure, Tested Conc. 0.03%
[7] = 60 min Exposure, Tested Conc. 0.10%
[8] = 60 min Exposure, Tested Conc. 0.30%

## O=C(OOC(=O)c1ccccc1)c1ccccc1 [benzoyl peroxide]
C. acnes; benzoyl peroxide alone (5% and 2.5% w/w) in 20% w/w Tween in dPBS
  Log10 difference of C. acnes vs dPBS control (FIG. 5): significant decrease in the recovered population of C. acnes

## O=C(O)c1ccccc1O [Salicylic acid in DI Water, salicylic acid]
[1]; [3]
  Log10 cells/mL Reduction: 0.10 Log10 cells/mL
  Percent Reduction: 20.6%
[1]; [4]
  Log10 cells/mL Reduction: 0.10 Log10 cells/mL
  Percent Reduction: 20.6%
[1]; [5]
  Log10 cells/mL Reduction: 0.57 Log10 cells/mL
  Percent Reduction: 73.2%
[1]; [6]
  Log10 cells/mL Reduction: 0.35 Log10 cells/mL
  Percent Reduction: 55.2%
[1]; [7]
  Log10 cells/mL Reduction: 1.14 Log10 cells/mL
  Percent Reduction: 92.8%
[1]; [8]
  Log10 cells/mL Reduction: >2.30 Log10 cells/mL
  Percent Reduction: >99.5%
C. acnes; 0.5% w/w in 20% w/w Tween in dPBS, Labskin, 24 hours
  Enumeration of C. acnes compared with dPBS control (FIG. 4): slight decrease in the average amount of C. acnes
C. acnes; 0.5% w/w salicylic acid in 20% w/w Tween in dPBS
  Log10 difference of C. acnes vs dPBS control (FIG. 5): moderate decrease in C. acnes recovered
C. acnes; 2% w/w salicylic acid in 20% w/w Tween in dPBS
  Log10 difference of C. acnes vs dPBS control (FIG. 5): noticeable decrease in the recovered population of C. acnes
[2]
  solubility limit in water: 0.3% *
C. acnes ATCC 6919; 1 h Exposure
  Reduction %: >99.997%
  Reduction Log10 CFU/mL: >4.6 Log10 CFU/mL
C. acnes ATCC 6919; 24 h Exposure
  Reduction %: >99.995%
  Reduction Log10 CFU/mL: >4.3 Log10 CFU/mL
